From US20100173832A1, “ANTICANCEROUS POLYMERIC AGENTS” (TECHNION RESEARCH & DEVELOPMENT FOUNDATION LTD., priority 2007, published 2010)
Read-outs that look alike come from different tables or passages of the source. Non-standard residues stand in square brackets, D forms with d. Residues, ends and D or L forms follow the SMILES beside them. *: point of attachment. Lauroyl = CCCCCCCCCCCC(=O)*; 12Ado = NCCCCCCCCCCCC(=O)O; Octanoyl = CCCCCCCC(=O)*

How the values were obtained:
TRAMP-C2 cell line = format: cell-based; conditions: for CC50: 24 hours incubation, XTT, read-out: Cancer LC50 Mouse prostate cancer TRAMP-C2
Excerpt: Transgenic adenocarcinoma mouse prostate cells (TRAMP-C2);
(§1) As a routine cancer cell killing assay for assessment of antitumor activity, 2,3-bis(2-methoxy-4-nitro-5-sulfophenyl)-2H-tetrazolium-5-carboxanilide inner salt (XTT) reduction assay was used, utilizing a commercial kit such as, for example, Cell Proliferation XTT Kit, Cat. No. 20-300-1000, Biological Industries Ltd., Kibbutz Beit Haemek, Israel. XTT is a tetrazolium salt which is cleaved to formazan colored compounds by the mitochondrial dehydrogenase enzymes indicating proper mitochondrial activity in intact cells.
(§2) Thereafter, a series of increasing concentrations of the polymers were added. After another 24 hours of incubation, XTT reaction solution was added (50 μl of XTT per 100 μl of cell culture medium). The optical density of the cells was measured at 450 nm by ELISA plate reader after 2-4 hours XTT incubation. Cell viability was determined relative to a control having no polymer added thereto.
“Mouse prostate cancer TRAMP-C2” represents the lethal concentration in μM as measured against TRAMP-C2 cell line, measured as described hereinabove in the cell proliferation XTT assay (column 5 in Table 3);

[1] = test system: drug-resistant 2008/MRP1 cells; conditions: human, 3 day
MCF-7 cell line = format: cell-based
Method: Human breast adenocarcinoma cells (MCF-7);
Thereafter, a series of increasing concentrations of the polymers were added. […] The optical density of the cells was measured at 450 nm by ELISA plate reader after 2-4 hours XTT incubation. Cell viability was determined relative to a control having no polymer added thereto.

[2] = XTT cell viability assay, non-cancerous cardiac fibroblasts (CF); format: cell-based, rat; conditions: rat
Excerpt: Primary non-cancerous rat cardiac fibroblasts (CF);
as §1, §2
“Rat primary cardiac fibroblast CF” represents the lethal concentration in μM as measured against CF cell line, measured as described hereinabove in the cell proliferation XTT assay (column 8 in Table 3);

[3] = test system: ovarian carcinoma 2008 drug-sensitive cells; assay: Cytotoxicity against drug-sensitive ovarian carcinoma 2008 cells; conditions: read-out: LC50 against drug-sensitive 2008 cells
N-417 cell line = assay: XTT cell viability assay, N-417 cells; format: cell-based; conditions: 24 hours incubation, XTT; read-out: Cancer LC50 Human small-cell lung carcinoma N-417
Excerpt: Variant small cell lung cancer cells (N-417, SCLC);
as §1, §2
“Human breast cancer MCF-7” represents the lethal concentration in μM as measured against MCF-7 cell line, measured as described hereinabove in the cell proliferation XTT assay (column 6 in Table 3); “Human small-cell lung carcinoma N-417” represents the lethal concentration in μM as measured against N-417 cell line, measured as described hereinabove in the cell proliferation XTT assay (column 7 in Table 3);

[4] = test system: drug-resistant 2008/MRP1 cells; assay: Cytotoxicity against drug-resistant 2008/MRP1 cells; conditions: read-out: LC50 against drug-resistant 2008/MRP1 cells; 1 day exposure (overnight), FIG. 10
[5] = test system: human red blood cells (RBC); assay: in vitro
Method: (§3) The polymer's toxic potential was determined against human red blood cells (RBC) by measuring leakage of hemoglobin therefrom in phosphate buffer solution (PBS). Human blood samples were rinsed three times in PBS by centrifugation for 2 minutes at 200×g, and re-suspended in PBS at 5% hematocrit. A 50 μl-fractions of a suspension containing […] RBC were added to test tubes containing 200 μl of polymer solutions (2-fold serial dilutions in PBS), PBS alone (for base-line values), or distilled water (for 100% hemolysis). […] Controls for base-line hemolysis (blank) and 100% hemolysis consisted of RBC suspended in PBS and TritonX100 (0.2%), respectively.

in vitro = conditions: human, red blood cells
Method: as §3

[6] = 24 hours incubation, XTT, read-out: Cancer LC50 Human breast cancer MCF-7
[7] = primary non-cancerous cardiac fibroblasts (CF), 24 hours incubation, XTT, non-cancerous cells, read-out: Cancer LC50 Rat primary cardiac fibroblast CF
[8] = LC50 against non-cancerous CF cells

Structure (SMILES) | CC50 (TRAMP-C2 cell line) [µM] | CC50 [1] [µM] | CC50 (MCF-7 cell line; [6]) [µM] | CC50 at 24 h [2, 7] [µM] | CC50 ([3]; 1 day exposure (overnight), FIG. 10) [µM] | CC50 (N-417 cell line) [µM] | CC50 [4] [µM] | hemolytic concentration versus cytotoxic concentration against cancer cells [5] | HC50 at 3 h (in vitro) [µM] | CC50 ([5]; read-out: LC50 RBC (hemolytic concentration inducing lysis of 50% of human red blood cells), 3 hours incubation at 37° C., hemoglobin leakage assay) [µM] | CC50 (MCF-7 cell line; dose-dependent plots, FIGS. 4a-b, read-out: LC50 against MCF-7 cells) [µM] | CC50 at 24 h [2, 8] [µM] | CC50 (MCF-7 cell line; human, 24 h) [µM] | TRAMP-C2 lethal concentration (TRAMP-C2 cell line; mouse prostate cancer TRAMP-C2 cells, XTT assay) [µM] | MCF-7 lethal concentration (MCF-7 cell line; human breast adenocarcinoma MCF-7 cells, XTT assay) [µM] | CC50 ([3]; Homo sapiens, 72 h) [µM]
NCCCCCCCCCCCC(=O)N[C@@H](CCCCN)C(=O)N[C@@H](CCCCN)C(=O)NCCCCCCCCCCCC(=O)N[C@@H](CCCCN)C(=O)N[C@@H](CCCCN)C(=O)NCCCCCCCCCCCC(=O)N[C@@H](CCCCN)C(=O)N[C@@H](CCCCN)C(=O)NCCCCCCCCCCCC(=O)N[C@@H](CCCCN)C(N)=O (H-[12Ado]KK[12Ado]KK[12Ado]KK[12Ado]K-NH2) | 15 | 4 | 7 ± 1 | 35 ± 5 | ~15 | 10 ± 1 | ~15 | more than one order of magnitude higher | > 100 | – | – | – | – | – | – | –
NCCCC[C@H](NC(=O)CCCCCCCCCCCNC(=O)[C@H](CCCCN)NC(=O)[C@H](CCCCN)NC(=O)CCCCCCCCCCCNC(=O)[C@H](CCCCN)NC(=O)[C@H](CCCCN)NC(=O)CCCCCCCCCCCNC(=O)[C@@H](N)CCCCN)C(N)=O [(KNC12K)3NH2] (H-K[12Ado]KK[12Ado]KK[12Ado]K-NH2) | > 16 | – | > 16 | > 16 | – | > 16 | – | – | > 100 | > 100 | – | – | – | – | – | –
CCCCCCCC(=O)N[C@@H](CCCCN)C(=O)N[C@@H](CCCCN)C(=O)NCCCCCCCCCCCC(=O)N[C@@H](CCCCN)C(=O)N[C@@H](CCCCN)C(=O)NCCCCCCCCCCCC(=O)N[C@@H](CCCCN)C(=O)N[C@@H](CCCCN)C(=O)NCCCCCCCCCCCC(=O)N[C@@H](CCCCN)C(N)=O [C8K(KNC12K)3NH2] (Octanoyl-KK[12Ado]KK[12Ado]KK[12Ado]K-NH2) | 16 ± 2 | – | 5.7 ± 0.3 | 25 ± 8 | – | 10 ± 0.4 | – | – | > 100 | – | 5.5 | 25 | – | – | – | –
CCCCCCCCCCCC(=O)N[C@@H](CCCCN)C(=O)NCCCCCCCCCCCC(=O)N[C@@H](CCCCN)C(=O)N[C@@H](CCCCN)C(=O)NCCCCCCCCCCCC(=O)N[C@@H](CCCCN)C(N)=O [C12(KNC12K)2NH2] (Lauroyl-K[12Ado]KK[12Ado]K-NH2) | > 16 | – | – | 67 ± 10 | – | 10 ± 1 | – | – | 17 ± 6 | – | – | 67 | 11 | – | – | –
NCCCC[C@H](NC(=O)CCCCCCCCCCCNC(=O)[C@H](CCCCN)NC(=O)[C@H](CCCCN)NC(=O)CCCCCCCCCCCNC(=O)[C@H](CCCCN)NC(=O)[C@H](CCCCN)NC(=O)CCCCCCCCCCCNC(=O)[C@H](CCCCN)NC(=O)[C@@H](N)CCCCN)C(N)=O [K(KNC12K)3NH2] (H-KK[12Ado]KK[12Ado]KK[12Ado]K-NH2) | > 16 | – | > 16 | > 16 | – | > 16 | – | – | > 100 | – | – | – | – | – | – | –
NCCCCCCCCCCCC(=O)N[C@@H](CCCCN)C(=O)NCCCCCCCCCCCC(=O)N[C@@H](CCCCN)C(=O)N[C@@H](CCCCN)C(=O)NCCCCCCCCCCCC(=O)N[C@@H](CCCCN)C(=O)N[C@@H](CCCCN)C(=O)NCCCCCCCCCCCC(=O)N[C@@H](CCCCN)C(N)=O [NC12(KNC12K)3NH2] (H-[12Ado]K[12Ado]KK[12Ado]KK[12Ado]K-NH2) | > 16 | – | 7 ± 1 | 37 ± 1 | – | > 16 | – | more than one order of magnitude higher | > 100 | – | – | – | – | – | – | –
COc1cccc2c1C(=O)c1c(O)c3c(c(O)c1C2=O)C[C@@](O)(C(=O)CO)C[C@@H]3O[C@H]1C[C@H](N)[C@H](O)[C@H](C)O1 [doxorubicin, reference compound] | – | – | – | – | – | – | – | – | – | – | – | – | – | 0.5 ± 0.5 | 3.3 ± 2 | 0.035
